According to EP2438921A1, “23-O-Acetylshengmanol-3-O-beta-D-xylopyranoside and its medical use” (Universität Innsbruck, priority 2010, dated 2012):

Assays:
[1] = target: T1, GABAA receptors composed of α1, β2 and γ2S subunits (Homo sapiens, UniProt P14867+P18507+P47870); assay: Modulation of GABA-induced chloride currents (IGABA), two-microelectrode voltage-clamp in Xenopus laevis oocytes expressing GABAA receptors; type: cell-based; conditions: for Stimulation of IGABA (%): 100 µM of compound, GABA EC3-10 concentration; for Maximal stimulation of IGABA: GABA EC3-10, α1β2γ2S receptors
T1 construct: expressed in transfected cells; host or cells: Xenopus laevis oocytes (stage V-VI), injected with cRNA transcribed from cDNA templates in pCMV vector; α1:β2:γ2S cRNA ratio 1:1:10
T1 sequence (P14867 28-456): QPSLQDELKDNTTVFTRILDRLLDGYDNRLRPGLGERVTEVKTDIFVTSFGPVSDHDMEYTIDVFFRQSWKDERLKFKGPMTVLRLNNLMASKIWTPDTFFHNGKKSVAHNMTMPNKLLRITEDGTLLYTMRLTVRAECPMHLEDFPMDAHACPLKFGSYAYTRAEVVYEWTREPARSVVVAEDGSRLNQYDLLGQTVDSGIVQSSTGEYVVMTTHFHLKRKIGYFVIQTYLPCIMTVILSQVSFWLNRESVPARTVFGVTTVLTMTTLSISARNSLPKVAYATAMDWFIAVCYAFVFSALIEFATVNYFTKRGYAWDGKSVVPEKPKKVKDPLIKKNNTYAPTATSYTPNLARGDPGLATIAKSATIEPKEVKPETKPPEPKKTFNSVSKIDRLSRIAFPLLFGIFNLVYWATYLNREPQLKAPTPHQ
T1 sequence (P47870 26-512): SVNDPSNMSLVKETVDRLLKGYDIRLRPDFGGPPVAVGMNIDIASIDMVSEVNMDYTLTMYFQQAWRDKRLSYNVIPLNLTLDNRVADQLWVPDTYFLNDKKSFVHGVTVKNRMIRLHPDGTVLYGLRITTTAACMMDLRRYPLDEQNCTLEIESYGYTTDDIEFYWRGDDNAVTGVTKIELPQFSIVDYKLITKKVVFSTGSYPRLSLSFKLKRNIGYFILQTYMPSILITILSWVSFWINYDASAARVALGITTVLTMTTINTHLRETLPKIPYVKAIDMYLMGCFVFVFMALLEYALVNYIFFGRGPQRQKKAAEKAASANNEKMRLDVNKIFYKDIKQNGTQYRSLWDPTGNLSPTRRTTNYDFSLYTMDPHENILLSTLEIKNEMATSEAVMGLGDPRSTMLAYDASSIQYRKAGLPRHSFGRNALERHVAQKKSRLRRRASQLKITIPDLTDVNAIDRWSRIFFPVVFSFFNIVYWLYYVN
T1 sequence (P18507 40-467 isoform P18507-1 limits assumed): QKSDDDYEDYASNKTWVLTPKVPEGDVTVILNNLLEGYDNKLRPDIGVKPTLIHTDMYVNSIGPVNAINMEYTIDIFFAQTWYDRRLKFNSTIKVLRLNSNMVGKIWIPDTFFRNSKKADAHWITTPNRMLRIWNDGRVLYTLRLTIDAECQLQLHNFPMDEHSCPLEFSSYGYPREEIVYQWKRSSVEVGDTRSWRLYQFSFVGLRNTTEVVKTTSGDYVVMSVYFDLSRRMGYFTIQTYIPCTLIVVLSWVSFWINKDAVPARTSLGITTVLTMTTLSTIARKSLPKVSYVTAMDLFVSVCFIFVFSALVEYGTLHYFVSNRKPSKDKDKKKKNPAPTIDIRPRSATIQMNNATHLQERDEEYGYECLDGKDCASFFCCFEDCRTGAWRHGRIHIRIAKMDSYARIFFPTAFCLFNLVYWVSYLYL
Description: Preparation of stage V-VI oocytes from Xenopus laevis, synthesis of capped off run-off poly(A^+) cRNA transcripts from linearized cDNA templates (pCMV vector) was performed as described (Khom et al. 2000). Briefly, female Xenopus laevis (NASCO, USA) were anaesthetised by exposing them for 15 minutes to a 0.2 % solution of MS-222 (methane sulfonate salt of 3-aminobenzoic acid ethyl ester; Sandoz) before surgically removing parts of the ovaries. Follicle membranes from isolated oocytes were enzymatically digested with 2 mg/ml collagenase (Type 1A, Sigma). One day after isolation, the oocytes were injected with about 10-50 nl of DEPC- treated water ([…], Sigma, Germany) containing the different cRNAs at a concentration of approximately 150 - 3000 ng/µl/subunit. The amount of cRNA was determined by means of a NanoDrop ND-1000 (Kisker-biotech, Steinfurt, Germany).
To ensure expression of the gamma-subunit, cRNAs were mixed in a ratio of 1:1:10 (Boileau et al., 2002). Oocytes were stored at 18°C in ND96 solution (Methfessel et al., 1986). Electrophysiological experiments were done using the two-microelectrode voyage-clamp method at a holding potential of -70 mV making use of a TURBO TEC 01C amplifier (npi electronic, Tamm, Germany) and an Axon Digidata 1322A interface (Molecular Devices, Sunnyvale, CA). Using pCLAMP v.9.2 data acquisition was carried out. The bath solution contained 90 mM NaCl, 1 mM KCI, 1 mM MgCl2·6H2O, 1 mM CaCl2 and 5 mM HEPES (pH 7.4). Microelectrodes were filled with 2M KCl and had resistances between 1 and 3 MΩ (Khom et al., 2007).
GABA and compound (extract, fraction or pure compound) were applied by means of fast perfusion system (see Baburin et al., 2006 for detail Drug or control solutions were applied by means of a TECAN Miniprep 60 permitting automation of the experiments. Oocytes with maximal current amplitudes >3 µA were discarded to exclude voltage-clamp errors (Khom et al., 2007).
Stimulation of chloride currents by modulators of the GABAA receptor was measured at a GABA concentration eliciting between 3 and 10% of the maximal current amplitude (EC3-10). The EC3-10 was determined at the beginning of each experiment. Enhancement of the chloride current was defined as (I(GABA+Comp)/IGABA) - 1, where I(GABA+Comp) is the current response in the presence of a given compound (extract, fraction or pure compound) and IGABA is the control GABA current. To measure the sensitivity of the GABAA receptor for a given compound, it was applied for an equilibration period of 1 minute before applying GABA ([…]). Concentration-response curves were generated and the data were fitted by non-iinear regression analysis using Origin software (OriginLab Corporation, USA). Data were fitted to the equation: (1)/(1 + (((EC50)/([Comp])))^nH), [formula] where nH is the Hill coefficient. Each data point represents the mean ± S.E. from at least 4 oocytes and ≥ 2 oocyte batches. Statistical significance was calculated using paired Student t-test with a confidence interval of p < 0.05.
As described above, dried and cut sub-aerial parts of A. racemosa were grinded and extracted with methanol. The resulting crude extract (A0) was subsequently partitioned between water and organic solvents of increasing polarity giving diethyl ether (A1), ethyl acetate (A2) and 1-butanol (A3) fractions. Obtained extracts and the remaining aqueous layer (A4) were tested for their ability to modulate IGABA at a concentration of 100 µg/mL. To analyse the modulation of IGABA by black cohosh extracts and isolated compounds, GABAA receptors composed of α1, β2 and γ2s subunits were expressed in Xenopus oocytes. Stimulation of IGABA was analysed by means of the 2-microelectrode voyage-clamp technique. These and all subsequent experiments were carried out at a GABA EC3-10 concentration.

mice [2] = assay: Open Field Test (OF); type: in vivo, mice (C57BI/6N); conditions: for distance traveled in the open field in 10 min: 20 mg/kg/bodyweight i.p., 30 min prior to testing, control 38.2 ± 1.8 m
Description: (§1) Male mice (C57BI/6N) were obtained from Charles River Laboratories (Germany).
(§2) For maintenance mice were group housed with free access to food and water. Temperature was fixed to 23°C and 60% humidity with a 12 h light-dark cycle (lights on 0700-1900 hours). Mice at 3-8 months age were tested in all experiments (Khom et al., 2010).
(§3) Mice were transferred to the testing facility 24 h before commencement of experiments. Tests were performed between 0900 and 1300 hours. All tests were evaluated by an experimenter blinded to the administered compound, 30 min prior to testing animals were injected either with saline (0.9% NaCl-solution) as a control or with 23-O-acetylshengmanol-3-O-β-D-xylopyranosid (i.e., compound 4) and actein (i.e., compound 1), respectively (50 mg/250 µL stock prepared in 100% DMSO) at the indicated doses (0.2 mg/kg, 0.6 mg/kg, 2 mg/kg, 6 mg/kg, 20 mg/kg and 60 mg/kg bodyweight). All injection solutions contained 3% Polysorbat 80 and 10% of DMSO.
To determine explorative behaviour mice treated (n=9 for all doses) with compound 4 and control (n=11 mice were studied in the OF.
Open field behavior was tested over 10 min in a 50x50 cm box equipped with infrared rearing detection. Illumination was set to 150 lux. Explorative behavior was recorded and analyzed using the ActiMot 2 equipment (infrared beams) and software (TSE-systems, Bad Homburg, Germany). Arenas were subdivided into border (up to 8 cm from wall), center (20x20 cm, ie 16% of total area), and intermediate area according to the recommendations of EMPRESS (European Mouse Phenotyping Resource of Standardised Screens; http://empress.har.mrc.ac.uk).

mice [3] = assay: Light/Dark Choice Test (LDT); type: in vivo, mice (C57BI/6N)
Description: as §1, §2, §3
Explorative behavior in a brightly lit area (400 lux) was investigated by insertion of a black box into the open field arena, covering one third of the space. Time spent and distance travelled was measured over a 10 min period in the open area. One small field directly at the entrance to the black box was assigned as transition zone. To reach the larger compartment assigned as open area, the mouse had to leave the dark area completely. Behaviour was recorded and analyzed by means of the ActiMot2 system and software (TSE-systems, Bad Homburg, Germany).

[4] = target: T1, GABAA receptors composed of α1, β2 and γ2S subunits; assay: Modulation of GABA-induced chloride currents (IGABA), two-microelectrode voltage-clamp in Xenopus laevis oocytes expressing GABAA receptors; type: cell-based; conditions: IGABA-max induced by application of 1mM GABA; data not shown
mice [5] = assay: Stress-induced Hyperthermia Test (SIH); type: in vivo, mice (C57BI/6N)
Description: as §1, §2, §3
A temperature probe, lubricated with petrolatum, was inserted into the rectum of the mouse for a depth of up to 2 cm. […]
Prior to i.p injection of compound or saline the basal body temperature was determined. 3h after i.p injection, temperature was measured twice by means of a TH-5 Thermalert Monitoring Thermometer combined with a RET-3 rectal probe for mice. […]

Row | Stimulation of IGABA (%) [1] [%] | Molecule | EC50 [1] [µM] | Maximal stimulation of IGABA ([1]; compound 4 at 300 µM) [%] | other results
1 | 126 ± 29 | 12-acetylacteol [Compound 1a] | – | – | –
2 | – | CC(=O)O[C@@H]1C[C@@]23C[C@@]24CC[C@H](O[C@@H]2OC[C@@H](O)[C@H](O)[C@H]2O)C(C)(C)[C@@H]4CC[C@H]3[C@]2(C)C[C@@H]3O[C@]4(C[C@@H](C)[C@@H]3[C@@]12C)O[C@H](O)[C@@]1(C)O[C@@H]41 [Compound 1, actein] | 36 ± 14 | 378 ± 64 | distance traveled in the open field in 10 min (mice [2]): 30.6 ± 2.1 m
3 | 10 ± 4 | CC(=O)O[C@@H]1C[C@@]23C[C@@]24CC[C@H](O[C@@H]2OC[C@@H](O)[C@H](O)[C@H]2O)C(C)(C)[C@@H]4CC[C@H]3[C@]2(C)C[C@@H]3O[C@@]4(C[C@@H](C)[C@@H]3[C@@]12C)OC[C@@]1(C)O[C@@H]41 [Compound 3, 23-epi-26-deoxyactein] | – | – | –
4 | – | CC(=O)OC(CC(C)C1C(=O)C(O)C2(C)C3CCC4C(C)(C)C(OC5OCC(O)C(O)C5O)CCC45CC35CCC12C)C1OC1(C)C [Compound 4, 23-O-acetylshengmanol-3-O-β-D-xylopyranoside] | 27 ± 8 | – | distance travelled in the lit area (mice [3]; i.p., data not shown): without significant effects; time spent in the lit area (400 Lux) (mice [3]; ip, 0.6 mg/kg, 10 min): 265 ± 52 s; Transitions from the dark compartment to the lit area (mice [3]; vs vehicle group, data not shown): did not differ; chloride currents induced in the absence of GABA [4]: ≤ 1 % of IGABA-max; body temperature increase upon stress (ΔT) (mice [5]; 6 mg/kg/bodyweight i.p., 3h after injection, control 1.2 ± 0.1°): 0.1 ± 0.1 °; body temperature increase upon stress (ΔT) compared to control (mice [5]; i.p., doses of Figure 9): significantly (p<0.05) smaller increase; distance traveled in the open field in 10 min (mice [2]): 22.6 ± 2.8 m; ambulation in all areas of the OF and overall ambulation compared to control (mice [2]; doses ≥2 mg/kg/bodyweight i.p.): significantly (p<0.05) decreased ambulation; reduced distance compared to control littermates (mice [2]; doses ≥20 mg/kg i.p.): approximately 50%; IGABA enhancement, times stronger than the other isolated compounds ([1]; 100 µM, GABA EC3-10): about 10 times
5 | 64 ± 14 | CC(=O)O[C@H](C[C@@H](C)[C@H]1C(=O)[C@H](O)[C@@]2(C)[C@@H]3CC[C@H]4C(C)(C)[C@@H](O)CC[C@@]45C[C@@]35CC[C@]12C)[C@@H]1OC1(C)C [Compound 4a, 23-O-acetylshengmanol] | – | – | –
6 | 5 ± 2 | CC(=O)O[C@@H]1C[C@@]23C[C@@]24CC[C@H](O[C@@H]2OC[C@@H](O)[C@H](O)[C@H]2O)C(C)(C)[C@@H]4CC=C3[C@]2(C)C[C@@H]3O[C@@]4(O)[C@H](OC(C)(C)[C@H]4O)[C@@H](C)[C@@H]3[C@@]12C [Compound 5, cimiracemoside F] | – | – | –
7 | – | C[C@@H]1C[C@H]2O[C@@]3(O[C@@H]2C(C)(C)O)[C@H](O)[C@@]2(C)[C@@H]4CC[C@H]5C(C)(C)[C@@H](O[C@@H]6OC[C@@H](O)[C@H](O)[C@H]6O)CC[C@@]56C[C@@]46CC[C@]2(C)[C@@H]13 [Compound 6, cimigenol-3-O-β-D-xylopyranoside] | 28 ± 17 | 256 ± 40 | –
8 | – | CC(=O)OC(C)(C)[C@H]1O[C@@]23O[C@@H]1C[C@@H](C)[C@@H]2[C@@]1(C)CC[C@@]24C[C@@]25CC[C@H](O[C@@H]2OC[C@H](O)[C@H](O)[C@H]2O)C(C)(C)[C@@H]5CC[C@H]4[C@]1(C)[C@H]3O [Compound 8, 25-O-acetylcimigenol-3-O-α-L-arabinopyranoside] | 26 ± 7 | 289 ± 45 | Emax at 300 µM ([1]; read-out: Maximal stimulation of IGABA, GABA EC3-10, α1β2γ2S receptors, compound 4 at 300 µM): < 300%

Row | Molecule | Stimulation of IGABA (%) [1] [%] | EC50 [1] [µM] | Maximal stimulation of IGABA ([1]; compound 4 at 300 µM) [%] | other results
9 | CC(=O)OC1CC23CC24CCC(OC2OCC(O)C(O)C2O)C(C)(C)C4CCC3C2(C)CC3OC4(CC(C)C3C12C)OCC1(C)OC14 (centres unmarked) [Compound 2, 26-deoxyactein] | 10 ± 6 | – | – | –
10 | C=C(C)[C@H]1O[C@@]23O[C@@H]1C[C@@H](C)[C@@H]2[C@@]1(C)CC[C@@]24C[C@@]25CC[C@H](O[C@@H]2OC[C@@H](O)[C@H](O)[C@H]2O)C(C)(C)[C@@H]5CC[C@H]4[C@]1(C)[C@H]3O [Compound 10, 25-O-anhydrocimigenol-3-O-β-D-xylopyranoside] | -76 ± 7 | 26 ± 7 | – | –
